Patent US9308200B2, “Dry powder formulation comprising a phosphodiesterase inhibitor” (CHIESI FARMACEUTICI S.p.A., priority 2010, dated 2016)

Test system: OVA-induced eosinophilia in BALF
Experiment: Acute model of lung inflammation: OVA-induced eosinophilia in BALF of sensitized rats
Type: in vivo
Conditions: male Brown-Norway rats; micronized C2 blended with lactose, intratracheal single dose 2 hours before antigen aerosol; range in brackets 0.016 to 0.051
Protocol: The potency of one of the preferred compounds of the present invention was evaluated in vivo in an acute model of lung inflammation following a method described in Eur. J. Pharmacol., 2002 Feb. 22; 437(3):187-94 (which is incorporated herein by reference in its entirety), with minor modifications. Briefly, male Brown-Norway rats (150-200 g) were sensitized by intraperitoneal injection of a suspension containing ovalbumin (OVA, 1 mg/rat) and Al(OH)3 (100 mg/rat) in 1 mL of saline for 3 consecutive days. Two-three weeks later, the airway inflammation was induced by inhaled antigen (OVA, 1% in saline). Vehicle-control treated animals were exposed to an aerosol of saline. […] For the detection of inhibitory potency, micronized compound C2 was blended with lactose at different concentrations and administered by the intratracheal route as single dose 2 hours before antigen aerosol.
A dose-response curve of the inhibitory effect of the test compound on OVA-induced eosinophilia in BALF was performed and the ED50 dose of compound C2 was taken as a measure of potency in this bioassay.

Structure (SMILES): CS(=O)(=O)Nc1ccc(C(=O)OC(Cc2c(Cl)c[n+]([O-])cc2Cl)c2ccc(OC(F)F)c(OCC3CC3)c2)cc1OCC1CC1 (single isomer, unassigned; (-)) [Compound C2, (−)-3-Cyclopropylmethoxy-4-methanesulfonylamino-benzoic acid 1-(3-cyclopropylmethoxy-4-difluoromethoxy-phenyl)-2-(3,5-dichloro-1-oxy-pyridin-4-yl)-ethyl ester]
- ED50 dose, inhibition of OVA-induced eosinophilia in BALF: 0.028 µmol/kg
